SMILES strings stand for the structures.

In this assay the target is T1, HCV NS5B polymerase (NS5BΔCT21) (Hepatitis C virus genotype 1b, UniProt Q9WMX2).
T1 construct: A soluble C-terminal 21-amino acid truncated NS5B enzyme form; polyhistidine (C); made in house; host or cells: Escherichia coli
The assay can be described thus: HCV NS5B Polymerase Inhibition Assay. It is filed as biochemical, HCV-Con 1 isolate. The text has this:
A chemically synthesized 75-mer version, designated DCoH75, whose sequence matches the 3′-end of D-RNA, and DCoH75ddC, where the 3′-terminal cytidine of DCoH75 is replaced by dideoxycytidine, were used for assaying the NS5B enzyme activity as described in Ferrari et al., 12th International Symposium on HCV and Related Viruses, P-306 (2005). The sequence of the template RNA was: 5′-UGUGCCGGUCUUUCUGAACGGGAUAUAAACCUGGCCAGCUUCAUCGAACAAGUUGCCGUGUCUAUGACAUAGAUC-3′ (SEQ ID NO: 1). A soluble C-terminal 21-amino acid truncated NS5B enzyme form (NS5BΔCT21, from HCV-Con 1 isolate, genotype 1b, Genbank accession number AJ238799) was produced and purified from Escherichia coli as C-terminal polyhistidine-tagged fusion protein as described in Ferrari et al., J. Virol. 73:1649-1654 (1999). A typical assay contained 20 mM Hepes pH 7.3, 10 mM MgCl2, 60 mM NaCl, 100 μg/ml BSA, 20 units/ml RNasin, 7.5 mM DTT, 0.1 μM ATP/GTP/UTP, 0.026 μM CTP, 0.25 mM GAU, 0.03 μM RNA template, 20 μCi/ml [^33P]-CTP, 2% DMSO, and 30 or 150 nM NS5B enzyme. Reactions were incubated at 22° C. for 2 hours, then stopped by adding 150 mM EDTA, washed in DE81 filter plate in 0.5M di-basic sodium phosphate buffer, pH 7.0, and counted using Packard TopCount after the addition of scintillation cocktail. Polynucleotide synthesis was monitored by the incorporation of radiolabeled CTP. The effect of the Compounds of Formula (I) on the polymerase activity was evaluated by adding various concentrations of a Compound of Formula (I), typically in 10 serial 2-fold dilutions, to the assay mixture. The starting concentrations ranged from 200 μM to 1 μM. An IC50 value for the inhibitor, defined as the compound concentration that provides 50% inhibition of polymerase activity, was determined by fitting the cpm data to the Hill equation Y=100/(1+10̂((LogIC50−X)*HillSlope)), where X is the logarithm of compound concentration, and Y is the % inhibition. Ferrari et al., 12th International Symposium on HCV and Related Viruses, P-306 (2005) described in detail this assay procedure. It should be noted that such an assay as described is exemplary and not intended to limit the scope of the invention. The skilled practitioner can appreciate that modifications including but not limited to RNA template, primer, nucleotides, NS5B polymerase form, buffer composition, can be made to develop similar assays that yield the same result for the efficacy of the compounds and compositions described in the invention.
NS5B polymerase inhibition data was calculated for the compounds of the present invention using this method and is set forth in the table below.
In the case of `Cc1ncccc1C(=O)Nc1ccc(C(C)C)cc1N1CCN(c2ccncn2)CC1` [Compound 57], the IC50 (usually the midpoint of a concentration-inhibition curve) was found to be 0.1 µM.
Molecule `Cc1occc1C(=O)Nc1ccc(C(C)C)cc1N1CCN(c2cnccn2)CC1` [Compound 29] yielded a half-maximal inhibitory concentration (IC50) of 15 µM.
Regarding `CC(C)c1ccc(NC(=O)c2cccnc2)c(N2CCN(c3ccccn3)CC2)c1` [Compound 51], it took 7.3 µM to reach half-maximal inhibition (IC50).
The value for `CC(C)c1ccc(NC(=O)c2cccnc2)c(N2CCN(C(=O)CN(C)C)CC2)c1` [Compound 55] was over 200 µM.
As to `CC(C)c1ccc(NC(=O)C2CCOCC2)c(N2CCN(c3cnccn3)CC2)c1` [Compound 31], the concentration for half-maximal inhibition (IC50) was over 20 µM.
`Cc1nccnc1N1CCN(c2cc(C(C)C)ccc2NC(=O)c2cccnc2)CC1` [Compound 45] showed a concentration for half-maximal inhibition (IC50) of 3.9 µM.
Molecule `CNCC(=O)N1CCN(c2cc(C(C)C)ccc2NC(=O)c2cccnc2)CC1` [Compound 56] had a half-maximal inhibitory concentration (IC50) of over 200 µM.
With `Cc1ccnc(N2CCN(c3cc(C(C)C)ccc3NC(=O)c3cccnc3)CC2)n1` [Compound 44], the concentration for half-maximal inhibition (IC50) is 1.5 µM. This counts as single-digit micromolar.

The values are drawn from patent US20130164259A1, “1,4-S[…] DERIVATIVES AND METHODS OF USE THEREOF” (priority 2009, published 2013).
